Source: ChEMBL document CHEMBL1137857, “Design and synthesis of substituted N-methylbenzamide analogues derived from SR 48,968 as neurokinin-2 receptor antagonists” (Bioorg Med Chem Lett, 2004)

What was measured:
[1] = biological target: T1, Substance-K receptor (Bos taurus, UniProt P05363); assay: Binding affinity against bovine Tachykinin receptor 2
T1 sequence (P05363 whole entry): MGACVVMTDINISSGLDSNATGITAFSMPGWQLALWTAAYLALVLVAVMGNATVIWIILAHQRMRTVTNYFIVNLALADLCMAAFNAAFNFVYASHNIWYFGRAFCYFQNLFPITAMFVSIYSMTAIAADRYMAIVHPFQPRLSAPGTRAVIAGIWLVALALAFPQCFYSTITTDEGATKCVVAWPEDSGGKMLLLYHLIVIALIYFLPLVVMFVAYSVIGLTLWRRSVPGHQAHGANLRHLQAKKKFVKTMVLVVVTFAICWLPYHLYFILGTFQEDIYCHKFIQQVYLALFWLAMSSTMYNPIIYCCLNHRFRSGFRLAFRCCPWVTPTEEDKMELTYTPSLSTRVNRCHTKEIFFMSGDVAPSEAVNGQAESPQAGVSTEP

[2] = biological target: T2, Substance-K receptor (Cavia porcellus) (UniProt Q64077); assay: Antagonistic activity against Tachykinin receptor 2 binding to [b-Ala8] NKA(4-10) in isolated guinea pig trachea
T2 sequence (whole entry): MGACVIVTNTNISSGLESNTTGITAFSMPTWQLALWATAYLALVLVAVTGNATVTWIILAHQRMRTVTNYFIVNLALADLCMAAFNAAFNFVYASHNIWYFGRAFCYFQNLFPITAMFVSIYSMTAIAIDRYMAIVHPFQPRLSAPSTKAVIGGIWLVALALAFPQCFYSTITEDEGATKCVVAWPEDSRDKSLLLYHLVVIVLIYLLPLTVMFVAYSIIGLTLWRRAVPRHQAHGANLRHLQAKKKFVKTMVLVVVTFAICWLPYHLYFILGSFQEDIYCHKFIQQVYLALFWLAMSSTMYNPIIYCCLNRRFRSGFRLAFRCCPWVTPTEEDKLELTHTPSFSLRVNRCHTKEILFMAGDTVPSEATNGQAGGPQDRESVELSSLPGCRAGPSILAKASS

[3] = Tested for the ability to inhibit maximum contraction obtained in the presence of [b-Ala8] NKA(4-10) in isolated guinea pig trachea

Row | Ki [1] [nM] | pKb [2] | SMILES | Response [3] [%]
1 | 0.5 | 9.1 | CC(=O)NC1(c2ccccc2)CCN(CCC(CN(C)C(=O)c2ccccc2)c2ccc(Cl)c(Cl)c2)CC1 (single isomer, unassigned) [SAREDUTANT] | 
2 |  | < 8 | CN(C[C@H](CCN1CCC(O)(c2ccccc2)CC1)c1ccc(Cl)c(Cl)c1)C(=O)c1ccccc1NC(=O)CBr | 97.1
3 |  | 8.5 | CN(C[C@H](CCN1CCC(O)(c2ccccc2)CC1)c1ccc(Cl)c(Cl)c1)C(=O)c1ccccc1[N+](=O)[O-] | 92.7
4 |  | 8.5 | CN(C[C@H](CCN1CCC(O)(c2ccccc2)CC1)c1ccc(Cl)c(Cl)c1)C(=O)c1ccccc1N=C=S | 95.5
5 |  | 9.4 | CN(C[C@H](CCN1CCC(O)(c2ccccc2)CC1)c1ccc(Cl)c(Cl)c1)C(=O)c1cccc(N)c1 | 97.4
6 | 1 |  | CN(CC(CCN1CCC(O)(c2ccccc2)CC1)c1ccc(Cl)c(Cl)c1)C(=O)c1ccccc1 (stereo unspecified) | 
7 |  | 9.1 | CN(C[C@H](CCN1CCC(O)(c2ccccc2)CC1)c1ccc(Cl)c(Cl)c1)C(=O)c1ccc(N)cc1 | 95.9
8 |  | < 8 | CN(C[C@H](CCN1CCC(O)(c2ccccc2)CC1)c1ccc(Cl)c(Cl)c1)C(=O)c1cccc([N+](=O)[O-])c1 | 98.6
9 |  | < 8 | CC(=O)Nc1cccc(C(=O)N(C)C[C@H](CCN2CCC(O)(c3ccccc3)CC2)c2ccc(Cl)c(Cl)c2)c1 | 96.3
10 |  | 9.7 | CN(C[C@H](CCN1CCC(O)(c2ccccc2)CC1)c1ccc(Cl)c(Cl)c1)C(=O)c1ccc(F)cc1 | 94.7
11 |  | 8.55 | CN(C[C@H](CCN1CCC(O)(c2ccccc2)CC1)c1ccc(Cl)c(Cl)c1)C(=O)c1ccc([N+](=O)[O-])cc1 | 98
12 |  | < 8 | CN(C[C@H](CCN1CCC(O)(c2ccccc2)CC1)c1ccc(Cl)c(Cl)c1)C(=O)c1cccc(NC(=O)CBr)c1 | 98
13 |  | < 8 | CC(=O)Nc1ccccc1C(=O)N(C)C[C@H](CCN1CCC(O)(c2ccccc2)CC1)c1ccc(Cl)c(Cl)c1 | 98.3
14 |  |  | CN(C[C@H](CCN1CCC(O)(c2ccccc2)CC1)c1ccc(Cl)c(Cl)c1)C(=O)c1ccccc1 | 93.3
15 |  | < 8 | CN(C[C@H](CCN1CCC(O)(c2ccccc2)CC1)c1ccc(Cl)c(Cl)c1)C(=O)c1ccc(N=C=S)cc1 | 97.6
16 |  | 9.4 | CN(C[C@H](CCN1CCC(O)(c2ccccc2)CC1)c1ccc(Cl)c(Cl)c1)C(=O)c1ccccc1N | 98.2
17 |  | < 8 | CN(C[C@H](CCN1CCC(O)(c2ccccc2)CC1)c1ccc(Cl)c(Cl)c1)C(=O)c1cccc(N=C=S)c1 | 95.8
18 |  | 8.4 | CC(=O)Nc1ccc(C(=O)N(C)C[C@H](CCN2CCC(O)(c3ccccc3)CC2)c2ccc(Cl)c(Cl)c2)cc1 | 96.6
19 |  | 8.3 | CN(C[C@H](CCN1CCC(O)(c2ccccc2)CC1)c1ccc(Cl)c(Cl)c1)C(=O)c1ccc(NC(=O)CBr)cc1 | 96
